{"source": "patent US20220031849A1", "about": "“NANOPARTICLE ENCAPSULATION TO TARGET G PROTEIN-COUPLED RECEPTORS IN ENDOSOMES” (TAKEDA PHARMACEUTICAL COMPANY LIMITED, priority 2018, published 2022)", "key": {"[1]": {"test_system": "CFA-evoked mechanical hyperalgesia in mice", "experiment": "Complete Freund's adjuvant-evoked mechanical hyperalgesia, von Frey filaments", "assay_type": "in vivo", "conditions": "for Inhibition of CFA hyperalgesia at 1.5 h: 5 μl i.t., 48 h after CFA"}, "[2]": {"test_system": "SNS-evoked mechanical hyperalgesia in rats", "experiment": "Sural nerve spared (SNS) mechanical hyperalgesia, Randall-Selitto", "assay_type": "in vivo"}, "HEK-293 cells": {"test_system": "HEK-293 cells", "experiment": "Uptake and disassembly of Coumarin 153 loaded nanoparticles", "assay_type": "cell-based", "conditions": "30 min pre-incubation with inhibitor", "source_text": "The uptake and disassembly of DIPMA nanoparticles loaded with Coumarin153 (DIPMA-CO), which emits in an aqueous environment but not in the hydrophobic core, were examined by high content imaging (confocal microscopy).\nUptake and disassembly of nanoparticles in HEK-293 cells. Coumarin 153 is a solvatochromic dye that fluoresces only in polar solvents, allowing detection of the release of Coumarin loaded in the core of nanoparticles observed as the appearance of Coumarin fluorescence in intact cells. nanoparticles were self-assembled using 0.5 mg of Coumarin 153 per mg of DIPMA polymer (DIPMA-CO). HEK-293 cells were pre-incubated for 30 min with vehicle (Hank's Balanced Salt Solution, HBSS), dynamin inhibitor (Dyngo4a, Dy4, 30 μM), clathrin inhibitor (Pitstop, PS2, 30 μM), vacuolar H^+ATPase inhibitor (Bafilomycin A1, BFA, 1 μM) or NH4Cl (20 mM) to alkalinize endosomes. Images were obtained with a Leica SP8 confocal microscope using HCX PL APO 63× (NA […]) oil objective. Images were taken every 10 see for 30 min, where the first 5 readings correspond to baseline images prior the addition of DIPMA-CO nanoparticles (20 μg/mL). All images were analyzed using Fiji."}, "[3]": {"test_system": "CFA-induced mechanical hyperalgesia", "conditions": "Proc. Natl. Acad. Sci. USA. 114(46):12309-12314; cited from earlier work"}, "[4]": {"test_system": "capsaicin-evoked mechanical allodynia in mice", "experiment": "Capsaicin-evoked mechanical allodynia, von Frey filaments", "assay_type": "in vivo", "conditions": "for Time at which the effect is lost / not detected: i.t.", "experimental": "However, the same behaviour on the decay of the effect was observed.\nAP, nanoparticles or vehicle (5 μl) was administered by intrathecal injection to mice 30 min before intraplantar injection to the hind paw of capsaicin, which activates TRPV1 to cause acute allodynia and neurogenic inflammation. Withdrawal responses to stimulation of the plantar surface of the injected hindpaw with calibrated von Frey filaments (VFF) were measured before and after capsaicin. In mice receiving vehicle or DIPMA-empty nanoparticles, capsaicin decreased the VFF threshold from 0.5-4 h, consistent with mechanical allodynia, which returned to baseline after 24 h (FIG. 18B).\nDrug administration. Mice. […] Rats. […] Treatments were administered 10 days after sural nerve transection.\nAcute pain. Capsaicin (CAP, 5 μg) or vehicle (0.9% NaCl) was administered by subcutaneous intraplantar (i.pl.) injection (10 μL) into the left hindpaw of sedated mice (2% isoflurane) 30 min after i.t. injection of drugs.\nMechanical allodynia and hyperalgesia. Mechanical nociception was assessed by measuring withdrawal thresholds to stimulation of the plantar surfaces of the ipsilateral and contralateral hindpaws with calibrated von Frey filaments (VFF). Prior to experiments, mice were acclimatized to the experimental apparatus and environment for 2 h on 2 successive days. VFF withdrawal thresholds were measured in triplicate to establish a baseline for each mouse. For the CAP model, VFF withdrawal thresholds were measured at 30 min intervals for the first 2 h after i.t. drug administration, then at 60 min intervals for the next 2 h, and finally after 24 h. For the CFA model, VFF withdrawal thresholds were measured every 30 min for the first 3 h after i.t. drug administration, then at 60 min intervals for the next 5 h, and finally after 24 h. Results were normalized to the baseline withdrawal thresholds of each mouse."}, "[5]": {"test_system": "chronic pain model in rats", "experiment": "Chronic pain model by ligation of the sciatic nerve, Randall-Selitto (Example 10)", "assay_type": "in vivo", "conditions": "300 nM aprepitant, i.t. 10 μL", "source_text": "The chronic pain model was induced by ligation of the sciatic nerve, allowing sensitisation to pain (allodynia, hyperalgesia) to develop for 10 days. Sensitisation was confirmed measuring baseline (pre-surgery) and post-surgery paw withdrawal using a Randall-Selitto electronic algesimeter (Eva Santos-Nogueira, et al. J Neurotrauma. 2012, 29(5): 898-904). […] As is evident, aprepitant-loaded nanoparticles provide greater analgesia and longer lasting effects."}, "[6]": {"test_system": "C-fiber reflex and wind-up in SNS rats", "experiment": "C-fiber-evoked nociceptive reflex and wind-up in SNS rats", "assay_type": "in vivo", "conditions": "10 μl, 1 μM intrathecal"}, "[7]": {"test_system": "NK1R-positive lamina I neurons", "experiment": "Cell-attached patch clamp of SP-induced excitation in rat spinal cord slices", "assay_type": "cell-based", "conditions": "100 nM AP preincubation, washed; SP 1 μM, 2 min", "experimental": "The firing time was determined as the duration of the response to last action potential."}}, "note": "Ends that are not written are not given here.", "data": [{"molecule": "CN1CC[C@]23c4c5ccc(O)c4O[C@H]2[C@@H](O)C=C[C@H]3[C@H]1C5", "note": "[morphine]", "values": [{"measurement": "Effect on mechanical hyperalgesia after 0.5 h", "setting": "[1]; 3 mg/kg, i.p.", "result": "fully reversed the mechanical hyperalgesia"}, {"measurement": "Time at which the effect waned to baseline", "setting": "[1]; 3 mg/kg, i.p.", "result": 3, "unit": "h"}, {"measurement": "Duration of full reversal of hyperalgesia", "setting": "[2]; morphine", "result": 2, "unit": "h"}, {"measurement": "Time after which the effect was absent", "setting": "[2]; morphine", "result": 2.5, "unit": "h"}]}, {"molecule": "O=C(N/N=C/c1cc(O)c(O)cc1O)c1cc2ccccc2cc1O", "note": "[Dyngo4a]", "values": [{"measurement": "Effect of inhibitor on cellular fluorescence of DIPMA-CO nanoparticles", "setting": "HEK-293 cells", "result": "inhibited the accumulation of Coumarin 153 cellular fluorescence"}]}, {"molecule": "O=C1NC(=NS(=O)(=O)c2cccc3ccccc23)S/C1=C\\c1ccc(Br)cc1", "note": "[PitStop2]", "values": [{"measurement": "Effect of inhibitor on cellular fluorescence of DIPMA-CO nanoparticles", "setting": "HEK-293 cells", "result": "inhibited the accumulation of Coumarin 153 cellular fluorescence"}]}, {"molecule": "CGRP8-37: a membrane-impermeant CLR antagonist (VTHRLAGLLSRSGGVVKNNFVPTNVGSKAF; ends and bridges not checked; UniProt P06881 90-119, looked up, fragment)", "values": [{"measurement": "Reversal of mechanical hyperalgesia", "setting": "[3]", "result": "not"}]}, {"molecule": "CGRP8-37-Chol: cholestanol conjugate of CGRP8-37 (VTHRLAGLLSRSGGVVKNNFVPTNVGSKAF; ends and bridges not checked; also: cholestanol conjugate; UniProt P06881 90-119, looked up, fragment)", "values": [{"measurement": "Reversal of mechanical hyperalgesia", "setting": "[3]", "result": "~20", "unit": "%"}]}, {"molecule": "C[C@@H](O[C@H]1OCCN(Cc2nc(=O)[nH][nH]2)[C@H]1c1ccc(F)cc1)c1cc(C(F)(F)F)cc(C(F)(F)F)c1", "note": "[aprepitant, 5-([(2R,3S)-2-((R)-1-[3,5-Bis(trifluoromethyl)phenyl]ethoxy)-3-(4-fluorophenyl)morpholino]methyl)-1H-1,2,4-triazol-3(2H)-one]", "values": [{"measurement": "Inhibition of capsaicin-evoked allodynia at 1 h", "setting": "[4]; 5 μl i.t., 100 nM AP, 30 min before capsaicin", "result": "16±4", "unit": "%"}, {"measurement": "Time at which the effect is lost / not detected", "setting": "[4]; 100 nM AP", "result": 3, "unit": "h"}, {"measurement": "Time at which the effect is lost / not detected", "setting": "[4]; 100 nM AP, listed as AP", "result": 1.5, "unit": "h"}, {"measurement": "Analgesia on the first hour", "setting": "[4]; single i.t. dose 30 minutes prior to capsaicin (Example 9)", "result": 30, "unit": "%"}, {"measurement": "Inhibition of CFA hyperalgesia at 1.5 h", "setting": "[1]; 100 nM AP", "result": "30±6", "unit": "%"}, {"measurement": "Inhibition of CFA hyperalgesia at 1.5 h", "setting": "[1]; 300 nM AP", "result": "47±3", "unit": "%"}, {"measurement": "Duration of reversal of hyperalgesia", "setting": "[1]; free AP 100 or 300 nM, DIPMA-AP 100 nM AP, i.t.", "result": "2 to 3", "unit": "h"}, {"measurement": "Effect on withdrawal threshold", "setting": "[2]; 10 μl i.t., 100 nM, 10 days after SNS", "result": "did not modify withdrawal threshold"}, {"measurement": "Maximum inhibition of hyperalgesia, after 1 h", "setting": "[2]; 10 μl i.t., 300 nM", "result": "40±2", "unit": "%"}, {"measurement": "Time of return to baseline", "setting": "[2]; i.t., 300 nM", "result": 2.5, "unit": "h"}, {"measurement": "Inhibition of hyperalgesia after 1 h", "setting": "[2]; i.t., 1 μM", "result": "75±4", "unit": "%"}, {"measurement": "Time of return to baseline", "setting": "[2]; i.t., 1 μM", "result": 3, "unit": "h"}, {"measurement": "Duration of effect", "setting": "[5]", "result": 2, "unit": "h"}, {"measurement": "Improvement in pressure, Randall-Selitto", "setting": "[5]", "result": 20, "unit": "g"}, {"measurement": "Pain recovery", "setting": "[5]", "result": "~25", "unit": "%"}, {"measurement": "Effect on C-reflex", "setting": "[6]", "result": "decreased the C-reflex, but only at 30 min"}, {"measurement": "Effect on wind-up", "setting": "[6]", "result": "did not affect wind-up"}, {"measurement": "Effect on SP-induced firing of spinal neurons", "setting": "[7]", "result": "did not affect the onset, rate or duration of SP-induced firing"}]}, {"molecule": "Cl.N", "note": "[NH4Cl]", "values": [{"measurement": "Effect of inhibitor on cellular fluorescence of DIPMA-CO nanoparticles", "setting": "HEK-293 cells", "result": "suppressed fluorescence"}]}, {"molecule": "CO/C1=C\\C(C)=C\\[C@@H](C)[C@@H](O)[C@@H](C)C/C(C)=C/C=C/[C@H](OC)[C@@H]([C@@H](C)[C@@H](O)[C@H](C)[C@@]2(O)C[C@@H](O)[C@H](C)[C@@H](C(C)C)O2)OC1=O", "note": "[Bafilomycin A1]", "values": [{"measurement": "Effect of inhibitor on cellular fluorescence of DIPMA-CO nanoparticles", "setting": "HEK-293 cells", "result": "suppressed fluorescence"}, {"measurement": "Effect of inhibitor on cellular fluorescence of DIPMA-CO nanoparticles", "setting": "HEK-293 cells; listed as Bafilomycin A", "result": "inhibited the accumulation of Coumarin 153 cellular fluorescence"}]}]}
